# Test results: article PMC10458055, “Monocarboxylate Transporter 13 (MCT13/SLC16A13) Functions as a Novel Plasma Membrane Oligopeptide Transporter” (Nutrients, 2023)
# T1: MCT13 (SLC16A13), untagged, co-expressed with CD147 (Homo sapiens, UniProt Q7RTY0)
# T1 construct: untagged full-length MCT13, transiently co-transfected with CD147 in HEK293T cells; with Basigin
# T1 sequence (Q7RTY0 1-426): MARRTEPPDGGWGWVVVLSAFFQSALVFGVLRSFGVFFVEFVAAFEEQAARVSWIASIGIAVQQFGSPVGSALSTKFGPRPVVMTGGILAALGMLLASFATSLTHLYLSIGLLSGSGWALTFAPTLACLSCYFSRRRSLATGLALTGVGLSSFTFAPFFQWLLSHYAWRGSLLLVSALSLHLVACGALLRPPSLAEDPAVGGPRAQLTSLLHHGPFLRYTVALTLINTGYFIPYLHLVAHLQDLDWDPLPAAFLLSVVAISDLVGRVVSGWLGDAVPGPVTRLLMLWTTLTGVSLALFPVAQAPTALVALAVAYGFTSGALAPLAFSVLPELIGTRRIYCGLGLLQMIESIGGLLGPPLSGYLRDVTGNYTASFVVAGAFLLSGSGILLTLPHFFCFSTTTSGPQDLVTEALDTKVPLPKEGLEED
# T1 sequence (P35613 22-385 partner): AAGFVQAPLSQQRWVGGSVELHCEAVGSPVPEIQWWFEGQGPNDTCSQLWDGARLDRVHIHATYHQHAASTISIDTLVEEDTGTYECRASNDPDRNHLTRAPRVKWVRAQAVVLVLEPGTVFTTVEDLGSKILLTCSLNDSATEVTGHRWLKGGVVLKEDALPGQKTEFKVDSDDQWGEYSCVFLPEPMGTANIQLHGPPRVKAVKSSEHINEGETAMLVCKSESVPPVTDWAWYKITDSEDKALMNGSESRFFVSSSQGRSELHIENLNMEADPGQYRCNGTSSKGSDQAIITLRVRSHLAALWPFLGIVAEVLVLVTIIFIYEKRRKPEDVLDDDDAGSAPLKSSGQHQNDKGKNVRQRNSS
# B1: MCT13 (SLC16A13), untagged, co-expressed with CD147 (Homo sapiens) (protein)
# chain: MARRTEPPDGGWGWVVVLSAFFQSALVFGVLRSFGVFFVEFVAAFEEQAARVSWIASIGIAVQQFGSPVGSALSTKFGPRPVVMTGGILAALGMLLASFATSLTHLYLSIGLLSGSGWALTFAPTLACLSCYFSRRRSLATGLALTGVGLSSFTFAPFFQWLLSHYAWRGSLLLVSALSLHLVACGALLRPPSLAEDPAVGGPRAQLTSLLHHGPFLRYTVALTLINTGYFIPYLHLVAHLQDLDWDPLPAAFLLSVVAISDLVGRVVSGWLGDAVPGPVTRLLMLWTTLTGVSLALFPVAQAPTALVALAVAYGFTSGALAPLAFSVLPELIGTRRIYCGLGLLQMIESIGGLLGPPLSGYLRDVTGNYTASFVVAGAFLLSGSGILLTLPHFFCFSTTTSGPQDLVTEALDTKVPLPKEGLEED
# notes: untagged full-length MCT13, transiently co-transfected with CD147 in HEK293T cells; with Basigin
# B2: EGFP-tagged MCT13 (with CD147) (Homo sapiens) (protein)
# chain: MARRTEPPDGGWGWVVVLSAFFQSALVFGVLRSFGVFFVEFVAAFEEQAARVSWIASIGIAVQQFGSPVGSALSTKFGPRPVVMTGGILAALGMLLASFATSLTHLYLSIGLLSGSGWALTFAPTLACLSCYFSRRRSLATGLALTGVGLSSFTFAPFFQWLLSHYAWRGSLLLVSALSLHLVACGALLRPPSLAEDPAVGGPRAQLTSLLHHGPFLRYTVALTLINTGYFIPYLHLVAHLQDLDWDPLPAAFLLSVVAISDLVGRVVSGWLGDAVPGPVTRLLMLWTTLTGVSLALFPVAQAPTALVALAVAYGFTSGALAPLAFSVLPELIGTRRIYCGLGLLQMIESIGGLLGPPLSGYLRDVTGNYTASFVVAGAFLLSGSGILLTLPHFFCFSTTTSGPQDLVTEALDTKVPLPKEGLEED
# notes: EGFP-tagged (pEGFP-C1) full-length MCT13, co-transfected with CD147 in HEK293T cells; with Basigin
# Key:
# [1] = molecular target: T1, MCT13 (SLC16A13), untagged, co-expressed with CD147; test: inhibition of cephradine uptake in transfected HEK293T cells, LC-MS/MS; assay type: cell-based; details: HEK-293T; read-out: % inhibition at 10 mM
# [2] = molecular target: T1, MCT13 (SLC16A13), untagged, co-expressed with CD147; test: as above; assay type: cell-based; details: 1 mM cephradine, KCl buffer with 1% DMSO, 5 min, mock subtracted
# [3] = molecular target: T1, MCT13 (SLC16A13), untagged, co-expressed with CD147; test: as above; assay type: cell-based; details: 1 mM cephradine, KCl buffer, 5 min, mock subtracted
# [4] = substrate: CC1=C(C(=O)O)N2C(=O)[C@@H](NC(=O)[C@H](N)C3=CCC=CC3)[C@H]2SC1; test: uptake in transfected HEK293T cells, LC-MS/MS; assay type: cell-based, Homo sapiens
molecule,measurement,setting,value
Cc1nnc(SCC2=C(C(=O)O)N3C(=O)[C@@H](NC(=O)Cn4cnnn4)[C@H]3SC2)s1 [Cephazolin],inhibition at 10000 µM,[1],43%
N[C@@H](CCC(=O)N[C@@H](CS)C(=O)NCC(=O)O)C(=O)O [glutathione],inhibition at 10000 µM,[1],30%
CO[C@H]1/C=C/O[C@@]2(C)Oc3c(C)c(O)c4c(O)c(c(/C=N/N5CCN(C)CC5)c(O)c4c3C2=O)NC(=O)/C(C)=C\C=C\[C@H](C)[C@H](O)[C@@H](C)[C@@H](O)[C@@H](C)[C@H](OC(C)=O)[C@@H]1C [rifampicin],% of control at 50 uM,[2],"Probenecid and rifampicin, which are typical inhibitors of organic anion transporters"
CCCN(CCC)S(=O)(=O)c1ccc(C(=O)O)cc1 [Probenecid],% of control at 10 mM,[3],"Probenecid and rifampicin, which are typical inhibitors of organic anion transporters"
B1,Km,"[4]; KCl buffer, 0.1-30 mM cephradine, co-expressed CD147",2.83 ± 0.63 mM
B2,Km,[4]; EGFP-tagged MCT13,3.95 ± 0.53 mM
